Data as given in paper PMC12097015, “Development of MDM2‐Targeting PROTAC for Advancing Bone Regeneration” (Advanced Science, 2025).
Read-outs that look alike come from different tables or passages of the source.

Tests used:
[1] = system: OVX-induced osteoporosis model; assay: Ovariectomy (OVX)-induced osteoporosis mouse model; format: in vivo, C57BL6 mice; details: OVX mice
Method: -Establishment of Ovariectomized Mice Model: The experimental protocols were approved by the IACUC (Approval code: IACUC230118) at the CHA Laboratory Animal Research Center. The mice were handled in compliance with the Guidelines for the Care and Use of Animals at the institution. Female C57BL6 mice (seven weeks old (n = 57)) were randomly divided into six groups (n = 8-10): […] All surgeries and pump implantations were performed under aseptic conditions. Mice were anesthetized before removing both sides of the ovaries. In the fourth week following surgery, an Alzet osmotic pump (Durect Corp, #1004) was implanted in the mice. […] Images were acquired at an effective pixel size of 50 μm (130 kV and 60 μA radiation source; 1.0 mm aluminum filter). Subsequently, 3D images were reconstructed from the 2D X-ray projections by implementing the Feldkamp algorithm, and appropriate image corrections, including ring artifact correction, beam hardening correction, and fine-tuning, were processed using NRecon software (SkyScan 1173, Belgium). The dynamic image range (contrast limits) was determined at 0-0.3 in units of attenuation coefficient and was applied to all datasets for optimum image contrast. After acquisition and reconstruction of the datasets, images were first reoriented on each 3D plane using DataViewer software (SkyScan 1173, Belgium) to align the long axis of the femur parallel to the coronal and sagittal planes. Next, 3D morphometric analyses of the distal femur and body of the lumbar vertebrae were performed using CT-Analyzer software (SkyScan 1173, Belgium). Regarding the region of interest (ROI), this work analyzed the 1.5 mm […] trabecular bone of the distal femur metaphysis, excluding the growth plate. The ROIs were delineated using a freehand drawing tool while maintaining a […] clearance from the endosteal surface. […] A global threshold of 60 (1.01573 g cm^-3) was applied to all scans to extract a physiologically accurate representation of the trabecular bone phase. […] All quantitative and structural parameters followed the nomenclature and units recommended by the American Society for Bone and Mineral Research (ASBMR) Histomorphometry Nomenclature Committee. After data quantification,^[ [26b] ^] 3D rendered images were generated to visualize the analyzed regions using the marching cube method. -H&E staining: Following decalcification, the specimens were fixed in paraffin and longitudinally sliced to a thickness of 3 μm using a microtome. Subsequently, each sample was affixed to a slide and exposed to a temperature of 55 °C. […] The slides underwent a 1 min wash in flowing purified water and immersed in Harris hematoxylin-I for 5 min, followed by a 1 min wash under flowing tap water. Sections were briefly immersed in ammonia water for 30 s and washed with tap water for 3 min. Subsequently, the sections were stained with Eosin Y for 2 min and 30 s, followed by gradual drying in 95%-100% ethanol. Any residual stain was rinsed with distilled water and each section was mounted. -Masson's trichrome staining: Following deparaffinization and hydration, the sections underwent treatment with a mordant containing a 5% iron alum solution in a dry oven at 56 °C for 30 min. Sections were washed under running tap water for 5-6 min to remove picric acid. Sections were stained with Weigert's iron hematoxylin solution for 10 min, followed by rinsing with purified water. A 5 min staining with Biebrich scarlet-acid fuchsin solution ensued, succeeded by washing with purified water. The sections were immersed in a phosphomolybdic-phosphotungstic acid solution for 5 min. After discarding the solution, the sections were washed with distilled water. Differentiation was performed in 1% glacial acetic acid solution for 3 min. The solution was discarded, and the remaining stain was washed with distilled water.

hBMSCs = assay: Alizarin Red S (ARS) staining of hBMSCs under osteogenic differentiation; format: cell-based, human; details: osteogenic differentiation conditions
Method: To induce osteogenic differentiation, the cells were seeded in confluent plates and cultured in osteogenic induction medium the following day. The differentiation medium was prepared by adding 10 mM β‐glycerophosphate (Sigma‐Aldrich, G9422), 50 µM ascorbic acid (Sigma‐Aldrich, A4403), and 0.1 µM dexamethasone (Sigma‐Aldrich, D4902) to the culture medium. The cells were treated with MDM2 inhibitors, Nutlin‐3 (Sigma‐Aldrich, N6787) or CL144 in an osteoinductive medium and incubated for 10–14 days to induce osteogenic differentiation. The differentiation medium was changed every 2–3 days (The list of MDM2 inhibitors used is shown in Figure 1A and presented in Table S1, Supporting Information).
Following osteogenic differentiation for the indicated number of days, the cells were fixed in 70% ethanol for 3 min at room temperature or in 4% PFA (Tech & Innovation, BPP‐9004) for 30 min at room temperature, washed with distilled water, and stained with 2% Alizarin Red S (Sigma‐Aldrich; pH 4.2, A5533) for 30 min.

RUNX2, OCN, OPN = assay: qPCR of osteogenic differentiation marker genes in hBMSCs; format: cell-based, human
Method: Total RNA was extracted from hBMSCs treated with Nutlin‐3 or CL144, as well as from control cells, using Trizol (Invitrogen, 15596026), according to the manufacturer's instructions. cDNA was synthesized using TOPscript RT DryMIX (Enzynomics, RT200). Human gene‐specific primer sequences were used. (Used primer sequences see Table S2, Supporting Information). qPCR was conducted using the SYBR Green qPCR Master Mix (Applied biosystems, 4 309 155). Relative gene expression levels were calculated using the ΔΔCt method with GAPDH as the internal control for normalization.

[2] = Pharmacokinetic study in BALB/c mice; format: in vivo; details: mouse, plasma; for MRT last: read-out: MRT0–t; for MRT inf: read-out: MRT0–∞
Method: Pharmacokinetic (PK) studies of CL144 were conducted by Medicilon Preclinical Research (Shanghai) LLC. Six BALB/c mice were divided into two groups, and CL144 was administered by tail vein injection (iv; 1.0 mg kg^−1) or gavage (po; 10 mg kg^−1). Blood samples were collected from the submandibular vein at 0.083, 0.25, 0.5, 1, 4, and 24 h for the iv group and at 0.25, 0.5, 1, 3, 6, and 24 h for the po group. Blood samples were centrifuged at 6800 x g for 6 min at 2–8 °C within 1 h after collection and stored at ≈−80 °C. Plasma samples were analyzed by LC‐MS/MS (TQ6500+), and PK parameters were calculated using the FDA‐certified pharmacokinetic program Phoenix WinNonlin 7.0 (Pharsight, USA).

[3] = 0.5 mg kg^−1, osmotic pump 28 days
[4] = 0.5 mg kg^−1, same concentration of Nutlin‐3

## COc1ccc(C2=N[C@H](c3ccc(Cl)cc3)[C@H](c3ccc(Cl)cc3)N2C(=O)N2CCN(CC(=O)NCCCCCCCCOc3cccc4c3C(=O)N(C3CCC(=O)NC3=O)C4=O)C(=O)C2)c(OC(C)C)c1 (stereo in doubt) [CL144]
[1]; 0.5 mg kg^−1
  regenerative effect compared with alendronate: results comparable to those of the alendronate‐treated group
[1]; [3]
  recovery in BV/TV compared to the OVX group: 65%
  recovery in Tb.N compared to the OVX group: 58%
[1]; [4]
  improvement in BV/TV compared to the Nutlin‐3 group: 56%
  improvement in Tb.N compared to the Nutlin‐3 group: 61%
[1]; 1 mg kg^−1, osmotic pump 28 days
  recovery in BMD compared to the OVX group: 12%
[1]; 1 mg kg^−1, same concentration of Nutlin‐3
  improvement in BMD compared to the Nutlin‐3 group: 13%
[1]; tibia and femur tissues
  bone histology (H&E staining) versus OVX group: newly formed trabecular structures were observed
hBMSCs
  biomineralization / osteogenic potency (ARS staining): significantly enhanced biomineralization
RUNX2, OCN, OPN; 10 μΜ
  OPN mRNA level: increased
RUNX2, OCN, OPN; same concentrations
  expression levels of RUNX2 and OCN (mRNA) compared to Nutlin‐3: significantly increased
[2]; 1.0 mg kg^−1 (iv)
  AUC(0-inf): 0.546 ± 0.039 µg·h/mL
  AUC(0-t): 0.532 ± 0.035 µg·h/mL
  Cmax: 1.63 ± 0.111 µg/mL
  Tmax: 4.98 min
  clearance: 1.84 ± 0.126 L/h/kg
  half-life: 70.8 ± 6.6 min
  MRT last: 16.8 ± 1.2 min
  MRT inf: 25.2 ± 3.6 min
[2]; 1.0 mg kg^−1 (iv), read-out: V ss
  Vd: 0.774 ± 0.092 L/kg
[2]; 1 mg kg^−1, intravenous administration
  AUC(0-t): 0.532 µg·h/mL
[2]; 10 mg kg^−1 (po)
  AUC(0-inf): 0.256 ± 0.049 µg·h/mL
  AUC(0-t): 0.252 ± 0.044 µg·h/mL
  Cmax: 0.106 ± 0.009 µg/mL
  Tmax: 49.8 ± 17.4 min
  bioavailability: 4.74 ± 0.83%
  half-life: 55.8 ± 15.6 min
  MRT last: 94.8 ± 21.6 min
  MRT inf: 100 ± 27.6 min
